biological target: PDE10 (Homo sapiens (Human), UniProt Q9Y233); experiment: LE_PDE10A inhibition assay (SPA, cAMP hydrolysis); assay type: biochemical; settings: 3H-cAMP at Km 25 nM, read-out: IC50
Method: LE_PDE10A Inhibition Assay:
The PDE10 inhibition assay in 384-well plates was conducted to identify substances for the inhibition of cyclic nucleotide hydrolysis by the PDE10 enzyme. […] PDE10 activity was measured using Scintillation Proximity Assay (SPA)-based methods. PDE10 catalyses the hydrolysis of the intracellular messenger adenosine […] (cAMP) to the non-cyclic adenosine 5′-monophosphate (AMP). The SPA assay was based upon the selective interaction of the tritiated product with yttrium oxide LEADseeker beads.
The assay buffer contained 25 mM HEPES pH 7.4, 2.5 mM Magnesium Chloride and 0.1% BSA. […] The reaction was terminated by adding 6 μL of 5 mg/mL of yttrium oxide LEADseeker beads. The beads were allowed to settle for 3 hours before plates were read in the LEEDSeaker for 6 minutes. The measured signal ccould be converted to activity relative to an […] control (100%). IC50 values were calculated by using in-house data software and IC50 values were generated by nonlinear regression analysis. (Bristol-Myers Squibb Company, Wallingford, Conn.).

PDE10, sequence (Q9Y233 whole entry): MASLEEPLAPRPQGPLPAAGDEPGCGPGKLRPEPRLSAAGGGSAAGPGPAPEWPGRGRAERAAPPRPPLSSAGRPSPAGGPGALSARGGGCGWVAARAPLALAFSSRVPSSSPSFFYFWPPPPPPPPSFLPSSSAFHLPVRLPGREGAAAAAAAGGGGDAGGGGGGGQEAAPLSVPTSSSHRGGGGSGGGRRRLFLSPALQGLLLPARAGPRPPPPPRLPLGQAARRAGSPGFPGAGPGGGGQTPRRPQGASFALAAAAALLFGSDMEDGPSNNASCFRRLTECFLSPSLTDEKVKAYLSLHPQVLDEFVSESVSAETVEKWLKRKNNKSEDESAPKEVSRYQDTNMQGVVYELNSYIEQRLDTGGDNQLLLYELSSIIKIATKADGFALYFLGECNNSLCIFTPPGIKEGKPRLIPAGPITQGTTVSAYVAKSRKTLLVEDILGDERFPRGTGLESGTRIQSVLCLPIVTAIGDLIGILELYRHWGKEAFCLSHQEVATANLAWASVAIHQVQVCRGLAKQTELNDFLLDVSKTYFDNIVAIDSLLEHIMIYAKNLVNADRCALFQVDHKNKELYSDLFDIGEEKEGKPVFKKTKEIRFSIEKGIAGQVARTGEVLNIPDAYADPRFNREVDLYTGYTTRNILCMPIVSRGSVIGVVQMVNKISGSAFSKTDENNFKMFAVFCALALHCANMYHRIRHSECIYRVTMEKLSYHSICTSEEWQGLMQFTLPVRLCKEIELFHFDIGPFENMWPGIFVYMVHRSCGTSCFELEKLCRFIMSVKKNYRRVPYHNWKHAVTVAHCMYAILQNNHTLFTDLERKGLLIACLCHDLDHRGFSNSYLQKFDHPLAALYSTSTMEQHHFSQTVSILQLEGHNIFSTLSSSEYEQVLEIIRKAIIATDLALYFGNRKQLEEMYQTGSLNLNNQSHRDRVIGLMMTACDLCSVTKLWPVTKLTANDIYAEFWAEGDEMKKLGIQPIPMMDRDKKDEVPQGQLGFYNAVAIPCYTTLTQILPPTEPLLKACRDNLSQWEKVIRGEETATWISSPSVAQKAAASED

| IC50 | Compound |
| --- | --- |
| 14.5 nM | Cc1cc(C)n2nc(C3CC3c3nc(-c4ccccc4)cn3C)nc2n1 (stereo not drawn) [5,7-Dimethyl-2-(2-(1-methyl-4-phenyl-1H-imidazol-2-yl)cyclopropyl)-[1,2,4]-triazolo[1,5-a]pyrimidine] |
| 1.79 nM | Cc1ncc(C)n2nc(C3CC3c3nc(-c4ccccc4)cn3C)nc12 (racemic) [5,8-Dimethyl-2-(2-(1-methyl-4-phenyl-1H-imidazol-2-yl)cyclopropyl)-[1,2,4]triazolo[1,5-a]pyrazine] |
| 6.65 nM | CCCn1cc(-c2ccccc2)nc1C1CC1c1nc2c(C)ncc(C)n2n1 (stereo not drawn) [5,8-dimethyl-2-(2-(4-phenyl-1-propyl-1H-imidazol-2-yl)cyclopropyl)-[1,2,4]triazolo[1,5-a]pyrazine] |

same assay, conditions: 3H-cAMP at Km 25 nM, read-out: Range (IC50)

| IC50 | Compound |
| --- | --- |
| 10.1 to 40 nM | Cc1ncc(C)n2nc(C3CC3c3nc(-c4ccccc4)cn3C)nc12 (single isomer, unassigned) [drawing 17, 5,8-dimethyl-2-(2-(1-methyl-4-phenyl-1H-imidazol-2-yl)cyclopropyl)-[1,2,4]triazolo[1,5-a]pyrazine] |
| 0.8 to 5 nM | Cc1ncc(C)n2nc(C3CC3c3nc(-c4ccccc4)cn3C)nc12 (single isomer, unassigned) [drawing 16, 5,8-dimethyl-2-(2-(1-methyl-4-phenyl-1H-imidazol-2-yl)cyclopropyl)-[1,2,4]triazolo[1,5-a]pyrazine] |
| 5.1 to 10 nM | CCn1cc(-c2ccccc2)nc1C1CC1c1nc2c(C)ncc(C)n2n1 (stereo not drawn) [2-(2-(1-Ethyl-4-phenyl-1H-imidazol-2-yl)cyclopropyl)-5,8-dimethyl-[1,2,4]triazolo[1,5-a]pyrazine] |

— patent US8592423B2, “Inhibitors of PDE10” (Bristol-Myers Squibb Company, priority 2011, dated 2013)
